Reference: patent publication US8945584B2, “Cell culture system of a hepatitis C genotype 3a and 2a chimera” (Hvidovre Hospital, priority 2007, dated 2015)

Key:
[1] = system: Huh7.5 cells; test: Determination of 50% tissue culture infectious doses (TCID50) of culture supernatants; format: cell-based, human; details: for infectivity titer (TCID50): day 9 post-transfection, one of 6 replicate wells infected with undiluted supernatant
Description: To determine the efficiency of the developed system, HCV RNA titers are determined in IU/ml (international units/ml) with Taq-Man Real-Time-PCR and infectious titers are determined with a tissue culture infectious dose-50 method. This titer indicates the dilution of the examined viral stock, at which 50% of the replicate cell cultures used in the essay become infected and is given in TCID50/ml.
In general, the TCID50 of culture supernatants was determined as previously described. Huh7.5 cells were washed with PBS, trypsinized and plated at 6×10^3 cells per well of a poly-D-lysine coated 96 well plate (Nunc). After ˜24 hrs cells were incubated with 10-fold serial dilutions of viral stock cell culture supernatant in complete growth medium. For each dilution, six replicate wells were inoculated. After incubation for 48 hrs the plate was subjected to immuno staining for NS5A as described above. Wells were evaluated by light microscopy and scored positive if at least one positive cell could be detected. TCID50 values were calculated as described by Reed and Muench.
For determination of TCID50 Huh7.5 cells were plated at 6×10^3 cells/well on a poly-D-Lysine coated 96 well plate and infected with serial dilutions of virus containing cell culture supernatant in complete growth medium in replicates of 6 wells per dilution. After incubation for 48 hours cells were stained for NS5A expression. A well was counted positive, if at least one infected cell was visible. Calculation of TCID50 was done as previously described by Reed et al. † Average of 3 independent determinations, * average of 2 independent determinations, +1 determination. HCV RNA titers were determined with an TaqMan assay. Supernatants from transfection experiments were not tested in TaqMan due to DNA/RNA input from the transfection procedure. Specific infectivity was calculated as infectious units (TCID50/ml) per genome number (IU/ml).

[2] = system: Huh7.5 cells; test: Real-time PCR (TaqMan) assay for HCV RNA titers in cell culture supernatants; format: cell-based, human; details: kinetic experiment, inoculated with ~10^4 TCID50, day 6 and 9
Description: RNA was purified from 200 μl of heat inactivated (56° C. for 30 min) cell culture supernatant and eluted in a final volume of 50 μl using the Total Nucleic Acid Isolation Kit (Roche) in combination with the Total NA Variable Elution Volume protocol on a MagNA Pure LC Instrument (Roche). As an internal control, Phocine Distemper Virus (PDV) was added to the lysis buffer in a concentration titrated to yield a Ct of ˜32 upon real-time PCR analysis. In parallel to RNA purified from cell culture supernatants, a quantitative HCV standard panel covering RNA concentrations of 0 to 5×10^6 IU/ml in one log increments (OptiQuant HCV Panel, AcroMetrix) was analysed. […] For HCV, primers and a FAM-labelled MGB-probe were directed against the 5′ UTR and were previously shown to perform equivalently against a panel of the six major HCV genotypes in a different TaqMan assay (Engle R E, Bukh J, and Purcell R H, 2007) For PDV, a ready-to-use primer/probe mix was used (Dr. H. G. M. Niesters, Department of Virology, Erasmus Medical Centre, Rotterdam, The Netherlands). […] HCV RNA titers (IU/ml) were calculated using a standard curve created from the known concentrations of the standard panel and their corresponding Ct values (cycle number, at which the normalised fluorescence signal rises above a fixed threshold of 0.2 […] to the amount of template in the PCR reaction). […]

[3] = system: Huh7.5 cells; test: Percentage of infected cells by immuno-staining for HCV NS5A; format: cell-based, human
Description: Analyses were carried out as previously described with modifications. Huh7.5 cells were washed with PBS, trypsinized and plated on chamber slides (Nunc). After ˜24 hours cells were washed twice with PBS and fixed 5 min with ice-cold methanol. After washing 2× with PBS and 1× with PBS/Tween (0.1% Tween-20), slides were blocked with PBS containing bovine serum albumin (BSA, 1%) and skim milk (0.2%) for 1 hour at room temperature. Endogenous peroxidase staining was reduced by adding 3% H202 in PBS for 5 min. After washing as above the 1st antibody (anti-NS5A, 9E10, a generous gift from Charles M. Rice, used at 1:200 in PBS/Tween) was added and incubated at 4° C. overnight. After washing slides were incubated with secondary antibody (ECLTM Anti-mouse IgG, horseradish peroxidase linked whole antibody, Amersham Biosciences, used at 1:300 in PBS/Tween) for 30 min at room temperature. After washing horseradish peroxidase substrate (DAB substrate kit, DAKO) was added. After incubation for 30 min, slides were washed with H2O, mounted with Fluoromount-G (Southern Biotech) and cover slipped. Percentage of infected cells was evaluated by light microscopy assigning values of 0% (no cells infected), 1%, 5%, 10-90% (in steps of 10%), 95% and 100% (all cells infected).

[4] = system: J6/JFH1; test: Interferon alfa 2b treatment of infected Huh7.5 cultures, % NS5A positive cells; format: cell-based, hepatitis C virus
Description: (§1) FIG. 10. S52/JFH1 viruses are sensitive to treatment with Interferon alfa. […] Huh7.5 cells were infected with 10^4 TCID50 (MOI 0,003) of the indicated viruses. On day 5 after infection, cultures were evaluated for % of NS5A positive cells (first datapoint) and 4×10^5 cells of the respective culture were plated per well of a 6-well dish. After 24 hrs incubation, treatment with cell culture medium containing 500 IU/mL interferon alfa 2b was started. Interferon containing medium was replaced at the time points indicated by arrows. Cultures were evaluated for the % of NS5A positive cells at the indicated timepoints.
(§2) As proof of principle of using the present invention in testing of anti-hepatitis C virus substances, the effects of interferon alfa, currently used in combination therapy for HCV, were tested on the infected cell culture. […] Thus we treated Huh7.5 cell cultures infected with J6/JFH1, S52/JFH1(T2718G; A4550C) and S52/JFH1(A4550C) with cell culture medium containing 5001 U/mL interferon alfa 2b (FIG. 10). After initiation of treatment, we observed for all cultures a fast decline of HCV antigen positive cells. Thus, for J6/JFH1 and S52/JFH1(T2718G; A4550C) the percentage of NS5A positive cells was 90 and 60 the day prior to treatment, whereas only 20% and 10% NS5A positive cells were detected in the respective cultures on day 3 of treatment ([…]).
(§3) HCV cell culture systems could be important tools for testing of antiviral therapeutics. […] Thus Huh7.5 cell cultures infected with J6/JFH1, S52/JFH1(T2718G; A4550C) and S52/JFH1(A4550C) were treated with cell culture medium containing 5001 U/mL interferon alfa 2b. After initiation of treatment, a fast decline of HCV antigen positive cells was shown for all cultures. Thus, for J6/JFH1 and S52/JFH1(T2718G; A4550C) the percentage of NS5A positive cells was 90 and 60 the day prior to treatment, whereas only 20% and 10% NS5A positive cells were detected in the respective cultures on day 3 of treatment (FIG. 10).

[5] = system: S52/JFH1(A4550C); test: as above; format: cell-based, hepatitis C virus; details: 5001 U/mL interferon alfa 2b in medium (FIG. 10 legend: 500 IU/mL)
Description: as §1, §2, §3

[6] = system: S52/JFH1(T2718G; A4550C); test: as above; format: cell-based, hepatitis C virus
Description: as §1, §2, §3

[7] = 5001 U/mL interferon alfa 2b in medium (FIG. 10 legend: 500 IU/mL)
[8] = day 6, cultures not treated for 48 hrs

S52/JFH1: intergenotypic 3a/2a recombinant HCV: Core-NS2 of strain S52, 5' UTR, NS3-NS5B and 3' UTR of JFH1
infectivity titer (TCID50) [1]: undeterminable | infectivity titer (TCID50) ([1]; listed as pS52/JFH1): non-determinable | Peak infectivity titers after transfection ([1]; days 3, 7 and 9 post-transfection (FIG. 5B)): significantly lower titers | peak HCV RNA titers [2]: ~10^7 copies/ml | % infected cells ([3]; First experiment, 2nd viral passage (used for kinetic experiment), day 11): 95% | % infected cells ([3]; First experiment, 3rd viral passage (inoculated with 10^2.5 TCID50), day 12): 95% | % infected cells ([3]; First experiment, 3rd viral passage (inoculated with 10^4 TCID50), day 3): 90% | % infected cells ([3]; First experiment, transfection, experimental day 11): 40% | % infected cells ([3]; Second experiment, 1st viral passage, experimental day 8): 95% | % infected cells ([3]; Second experiment, transfection, experimental day 33): 70% | NS5A antigen positive cells ([3]; day 1 after transfection with RNA transcripts): ~10% | time until viruses spread to the entire culture ([3]; naive Huh7.5 cells infected with approximately 10^2.5 TCID50): 12 days | time until viruses spread to the entire culture ([3]; naive Huh7.5 cells infected with approximately 10^3 TCID50): 9 days | time until viruses spread to the entire culture ([3]; naive Huh7.5 cells infected with approximately 10^4 TCID50): 3 days

interferon alfa 2b
HCV antigen positive cells after initiation of treatment [4, 7]: fast decline | NS5A positive cells ([4]; day 3 of treatment, 90 the day prior to treatment): 20% | NS5A positive cells [4, 8]: 40% | HCV antigen positive cells after initiation of treatment [5]: fast decline | HCV antigen positive cells after initiation of treatment [6, 7]: fast decline | NS5A positive cells ([6]; day 3 of treatment, 60 the day prior to treatment): 10% | NS5A positive cells [6, 8]: 40%
